The target in the test is Substance-P receptor (Homo sapiens, UniProt P25103). Briefly: Inhibitory activity against Tachykinin receptor 1.
Sequence of Substance-P receptor (P25103 whole entry): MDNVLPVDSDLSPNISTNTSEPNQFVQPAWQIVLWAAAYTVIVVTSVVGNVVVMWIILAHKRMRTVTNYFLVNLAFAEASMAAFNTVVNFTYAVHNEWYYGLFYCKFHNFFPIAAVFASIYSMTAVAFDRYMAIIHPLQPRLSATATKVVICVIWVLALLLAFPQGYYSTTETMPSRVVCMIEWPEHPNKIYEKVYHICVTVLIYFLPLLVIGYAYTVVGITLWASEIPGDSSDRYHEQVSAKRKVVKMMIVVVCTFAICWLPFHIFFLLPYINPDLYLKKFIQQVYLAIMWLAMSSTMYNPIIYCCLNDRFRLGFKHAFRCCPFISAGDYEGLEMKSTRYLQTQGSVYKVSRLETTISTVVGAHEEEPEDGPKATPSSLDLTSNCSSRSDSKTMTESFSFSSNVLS
Usually IC50 stands for the point on the concentration scale where inhibition reaches its midpoint. Compound `COc1ccccc1C(CNC(=O)Cc1cc(C(F)(F)F)cc(C(F)(F)F)c1)N1CCCCC1` (stereo unspecified) yielded an IC50 of 250 nM.
In the case of `O=C(Cc1cc(C(F)(F)F)cc(C(F)(F)F)c1)NCC(c1ccccc1Br)N1CCC(N2CCCCC2)CC1` (stereo unspecified), the IC50 amounted to 0.88 nM.
For `Cc1cc(C)cc(CC(=O)N(C)CC(c2cccc3c2OCO3)N2CCC(N3CCCCC3)CC2)c1` (stereo unspecified) the value was 2.9 nM; for `COc1cccc(C(CN(C)C(=O)Cc2cc(C(F)(F)F)cc(C(F)(F)F)c2)N2CCC(N3CCCCC3)CC2)c1OC` (stereo unspecified), 10 nM.
The compound `COc1ccccc1C(CNC(=O)Cc1ccc(Cl)c(Cl)c1)N1CCN(C2CCCCC2)CC1` (stereo unspecified) had an IC50 of 280 nM.
As for `CN(CC(Cc1ccccc1)N1CCC(N2CCCCC2)CC1)C(=O)Cc1cc(C(F)(F)F)cc(C(F)(F)F)c1` (stereo unspecified), inhibition was half-maximal at 32 nM (IC50).
Compound `CC(C)N1CCN(C(CNC(=O)Cc2cc(C(F)(F)F)cc(C(F)(F)F)c2)c2cccc3c2OCO3)CC1` (stereo unspecified) yielded a 50% inhibitory concentration (IC50) of 6.9 nM.
Consider `O=C(Cc1cc(C(F)(F)F)cc(C(F)(F)F)c1)NCC(c1cccc(C(F)(F)F)c1F)N1CCC(N2CCCCC2)CC1` (stereo unspecified), for which the IC50 is 1.7 nM.
`CC(C)C1CCN(C2CCN(C(CN(C)C(=O)Cc3cc(C(F)(F)F)cc(C(F)(F)F)c3)c3ccc(Cl)c(Cl)c3)CC2)CC1` (stereo unspecified) registered an IC50 of 15 nM.
`O=C(Cc1cc(C(F)(F)F)cc(C(F)(F)F)c1)N1CCCCC1C(CN1CCC(N2CCCCC2)CC1)c1ccccc1` (stereo unspecified) yielded an IC50 of 1500 nM.
As to `Cc1c(F)cccc1C(CN(C)C(=O)Cc1cc(C(F)(F)F)cc(C(F)(F)F)c1)N1CCC(N2CCCCC2)CC1` (stereo unspecified), the IC50 was 1.4 nM.
For `O=C(Cc1cc(C(F)(F)F)cc(C(F)(F)F)c1)NCC(c1cccc2c1OCO2)N1CCN(C2CCCCC2)CC1` (stereo unspecified) the value was 1.6 nM.
Regarding `CN(CC(c1cccc(C(F)(F)F)c1F)N1CCC(N2CCCCC2)CC1)C(=O)Cc1cc(C(F)(F)F)cc(C(F)(F)F)c1` (stereo unspecified), half-maximal inhibition (IC50) was put at 1.4 nM.
As to `COc1ccccc1CC(=O)N(C)CC(c1cccc2c1OCO2)N1CCC(N2CCCCC2)CC1` (stereo unspecified), the IC50 came to 16 nM.
For the compound `COc1cccc(C(CNC(=O)Cc2cc(C(F)(F)F)cc(C(F)(F)F)c2)N2CCC(N3CCCCC3)CC2)c1` (stereo unspecified), the IC50 amounted to 1.5 nM.
`CN(CC(c1ccc(F)c(Cl)c1)N1CCC(N2CCCCC2)CC1)C(=O)Cc1cc(C(F)(F)F)cc(C(F)(F)F)c1` (stereo unspecified) gave an IC50 of 1.7 nM.
In turn, `O=C(Cc1cc(C(F)(F)F)cc(C(F)(F)F)c1)NCC(Cc1ccccc1)N1CCC(N2CCCCC2)CC1` (stereo unspecified) gave an IC50 of 81 nM.
Turning to `CN(CC(c1cccc2c1OCO2)N1CCN(C2CCCCC2)CC1)C(=O)Cc1cc(C(F)(F)F)cc(C(F)(F)F)c1` (stereo unspecified), half-maximal inhibition (IC50) required 1.3 nM.
Consider `CN(CC(c1ccc(F)c(F)c1F)N1CCC(N2CCCCC2)CC1)C(=O)Cc1cc(C(F)(F)F)cc(C(F)(F)F)c1` (stereo unspecified), for which the IC50 came out at 1.8 nM.
In the case of `CN(CC(c1cccc2c1OCO2)N1CCC(N2CCCCC2)CC1)C(=O)C(c1ccccc1)c1ccccc1` (stereo unspecified), the IC50 was determined as 22 nM.
The compound `CN(CC(c1ccccc1Br)N1CCC(N2CCCCC2)CC1)C(=O)Cc1cc(C(F)(F)F)cc(C(F)(F)F)c1` (stereo unspecified) registered an IC50 of 1.1 nM.
`CN(CC(c1ccc(F)cc1Cl)N1CCC(N2CCCCC2)CC1)C(=O)Cc1cc(C(F)(F)F)cc(C(F)(F)F)c1` (stereo unspecified) came in with an IC50 of 1.5 nM.
On to `COc1ccccc1C(C1CCCCN1C(=O)Cc1cc(C(F)(F)F)cc(C(F)(F)F)c1)N1CCC(N2CCCCC2)CC1` (stereo unspecified), for which half-maximal inhibition (IC50) was put at 4.3 nM.
As for `O=C(Cc1cc(C(F)(F)F)cc(C(F)(F)F)c1)NCC(C(c1ccccc1)c1ccccc1)N1CCC(N2CCCCC2)CC1` (stereo unspecified), the IC50 is 130 nM.
On to `O=C(Cc1cc(C(F)(F)F)cc(C(F)(F)F)c1)NCC(c1cccc2ccccc12)N1CCC(N2CCCCC2)CC1` (stereo unspecified), for which the midpoint of inhibition, the IC50, lay at 14 nM.
In turn, `CN(CC(c1ccc2c(c1)OCO2)N1CCC(N2CCCCC2)CC1)C(=O)Cc1cc(C(F)(F)F)cc(C(F)(F)F)c1` (stereo unspecified) displayed an IC50 of 4.8 nM.
Take `COc1ccc(OC)c(C(CNC(=O)Cc2cc(C(F)(F)F)cc(C(F)(F)F)c2)N2CCC(N3CCCCC3)CC2)c1` (stereo unspecified): half-maximal inhibition (IC50) was put at 110 nM.
As for `COc1ccccc1C(CNC(=O)Cc1cc(C)cc(C)c1)N1CCN(C2CCCCC2)CC1` (stereo unspecified), the figure is 15 nM; as for `CN(CC(c1ccccc1)N1CCN(C2CCCCC2)CC1)C(=O)Cc1cc(C(F)(F)F)cc(C(F)(F)F)c1` (stereo unspecified), 2 nM; as for `O=C(Cc1cc(C(F)(F)F)cc(C(F)(F)F)c1)NCC(c1cc(Cl)cc(Cl)c1Cl)N1CCC(N2CCCCC2)CC1` (stereo unspecified), 6.4 nM.
`COc1ccc(C(CN(C)C(=O)Cc2cc(C(F)(F)F)cc(C(F)(F)F)c2)N2CCC(N3CCCCC3)CC2)c(OC)c1OC` (stereo unspecified) gave an IC50 of 12 nM.
The compound `O=C(Cc1cc(C(F)(F)F)cc(C(F)(F)F)c1)NCC(c1cccc2ccccc12)N1CCN(C2CCCCC2)CC1` (stereo unspecified) registered an IC50 of 2.8 nM.
The compound `CN(CC(c1cc(Cl)cc(Cl)c1Cl)N1CCC(N2CCCCC2)CC1)C(=O)Cc1cc(C(F)(F)F)cc(C(F)(F)F)c1` (stereo unspecified) yielded an IC50 of 3 nM.
Regarding `CC(C)N1CCN(C(CN(C)C(=O)Cc2cc(C(F)(F)F)cc(C(F)(F)F)c2)c2cccc3c2OCO3)CC1` (stereo unspecified), the IC50 came out at 1.4 nM.
Compound `COc1ccccc1C(CNC(=O)Cc1ccccc1C(F)(F)F)N1CCN(C2CCCCC2)CC1` (stereo unspecified) registered an IC50 of 270 nM.
The compound `COc1ccccc1C(CNC(=O)Cc1cc(C(F)(F)F)cc(C(F)(F)F)c1)N1CCN(C2Cc3ccccc3C2)CC1` (stereo unspecified) returned an IC50 of 7.2 nM.
Compound `O=C(Cc1cc(C(F)(F)F)cc(C(F)(F)F)c1)NCC(c1cccc(F)c1)N1CCC(N2CCCCC2)CC1` (stereo unspecified) yielded an IC50 of 4.6 nM.
For `COc1cc(C(=O)N(C)CC(c2cccc3c2OCO3)N2CCC(N3CCCCC3)CC2)cc(OC)c1OC` (stereo unspecified) the value was 37 nM; for `COc1ccccc1C(CNC(=O)Cc1cc(C(F)(F)F)cc(C(F)(F)F)c1)N1CCC(N2CCCCC2)CC1` (stereo unspecified), 2.4 nM; for `COc1ccccc1C(CNC(=O)Cc1cccc(OC(C)C)c1)N1CCN(C2CCCCC2)CC1` (stereo unspecified), 130 nM.
`COc1ccccc1C(CNC(=O)Cc1cc(C(F)(F)F)cc(C(F)(F)F)c1)N1CCC(O)(c2ccccc2)CC1` (stereo unspecified) came in with an IC50 of 130 nM.
For `O=C(Cc1cc(C(F)(F)F)cc(C(F)(F)F)c1)NCC(c1ccccc1)N1CCC(N2CCCCC2)CC1` (stereo unspecified), half-maximal inhibition (IC50) was put at 5.4 nM.
In the case of `COc1cccc(C(CNC(=O)Cc2cc(C(F)(F)F)cc(C(F)(F)F)c2)N2CCC(N3CCCCC3)CC2)c1OC` (stereo unspecified), half-maximal inhibition (IC50) was put at 7.6 nM.
For the compound `CN(CC(c1cccc2c1OCO2)N1CCC(N2CCCCC2)CC1)C(=O)Cc1cc(C(F)(F)F)cc(C(F)(F)F)c1` (stereo unspecified), the IC50 stood at 1.8 nM.
The compound `O=C(Cc1cc(C(F)(F)F)cc(C(F)(F)F)c1)NCC(c1ccc2c(c1)OCCO2)N1CCC(N2CCCCC2)CC1` (stereo unspecified) gave an IC50 of 140 nM.
On to `COc1ccc(CC(=O)NCC(c2ccccc2OC)N2CCN(C3CCCCC3)CC2)cc1` (stereo unspecified), for which the midpoint of inhibition, the IC50, lay at 2200 nM.
For `CN(CC(c1cccc2c1OCO2)N1CCC(N2CCCCC2)CC1)C(=O)Cc1ccccc1Br` (stereo unspecified) the value was 6 nM; for `COc1ccc(C(CNC(=O)Cc2cc(C(F)(F)F)cc(C(F)(F)F)c2)N2CCC(N3CCCCC3)CC2)c(OC)c1OC` (stereo unspecified), 210 nM; for `O=C(Cc1cc(C(F)(F)F)cc(C(F)(F)F)c1)NCC(c1ccc(F)c(Cl)c1)N1CCC(N2CCCCC2)CC1` (stereo unspecified), 2.9 nM.
`O=C(Cc1cc(C(F)(F)F)cc(C(F)(F)F)c1)NCC(c1ccc(F)cc1Cl)N1CCC(N2CCCCC2)CC1` (stereo unspecified) gave an IC50 of 1.7 nM.
As for `Cc1c(F)cccc1C(CNC(=O)Cc1cc(C(F)(F)F)cc(C(F)(F)F)c1)N1CCC(N2CCCCC2)CC1` (stereo unspecified), the IC50 worked out at 3 nM.
As for `CN(CC(c1ccc(Cl)c(Cl)c1)N1CCC(N2CCCCC2)CC1)C(=O)Cc1cc(C(F)(F)F)cc(C(F)(F)F)c1` (stereo unspecified), the midpoint of inhibition, the IC50, lay at 2.3 nM.
As for `CN(CCc1cc(C(F)(F)F)cc(C(F)(F)F)c1)C(=O)C(Cc1c[nH]c2ccccc12)N1CCN(C2CCCCC2)CC1` (stereo unspecified), the figure is 12 nM; as for `COc1ccccc1C(CNC(=O)Cc1ccc(Cl)cc1)N1CCN(C2CCCCC2)CC1` (stereo unspecified), 850 nM.
`CN(CC(c1ccc2c(c1)OCCO2)N1CCC(N2CCCCC2)CC1)C(=O)Cc1cc(C(F)(F)F)cc(C(F)(F)F)c1` (stereo unspecified): it took 8.9 nM to reach half-maximal inhibition (IC50).
For `CN(CC(c1cccc2c1OCO2)N1CCC(N2CCCCC2)CC1)C(=O)Cc1ccccc1Cl` (stereo unspecified) the value was 12 nM; for `O=C(Cc1cc(C(F)(F)F)cc(C(F)(F)F)c1)NCC(c1ccc(Cl)c(Cl)c1)N1CCC(N(CCO)CCO)CC1` (stereo unspecified), 5.2 nM; for `O=C(Cc1cc(C(F)(F)F)cc(C(F)(F)F)c1)NCC(c1ccc(F)c(F)c1)N1CCC(N2CCCCC2)CC1` (stereo unspecified), 3.3 nM.
In the case of `CC(C)Oc1cccc(CC(=O)NCC(c2ccc(Cl)c(Cl)c2)N2CCC(N3CCCCC3)CC2)c1` (stereo unspecified), the IC50 was 5 nM.
With `COc1ccccc1C(CNC(=O)Cc1cc(C)cc(C)c1)N1CCC(N2CCCCC2)CC1` (stereo unspecified), the IC50 is 61 nM.
`O=C(Cc1cc(C(F)(F)F)cc(C(F)(F)F)c1)NCC(c1ccc(Cl)c(Cl)c1)N1CCC(N2CCCCC2)CC1` (stereo unspecified) yielded an IC50 of 0.75 nM.

For the origin of these results see ChEMBL document CHEMBL1133521, “Multiple-conformation and protonation-state representation in 4D-QSAR: the neurokinin-1 receptor system” (J Med Chem, 2000).
